Laboratory results published in ChEMBL document CHEMBL4406872, “Synthesis and structure activity relationship of 1, 3-benzo-thiazine-2-thiones as selective HDAC8 inhibitors” (Eur J Med Chem, 2019).

Test: physchem
Conditions: bicarbonate buffer

| Compound | remaining at 24 h, 5000 µM [%] |
| --- | --- |
| Fc1ccc2c(c1)C1=NCCN1C(=S)S2 | > 95 |
| S=C1Sc2cc(Br)ccc2C2=NCCCN12 | > 95 |
| N=C1Sc2ccccc2C2=NCCCN12 | < 5 |
| Cc1cccc2c1C1=NCCN1C(=S)S2 | > 95 |
